The source of these data is US20150313913A1, “POSITIVE ALLOSTERIC MODULATORS OF THE GABA-A RECEPTOR IN THE TREATMENT OF AUTISM” (UNIVERSITY OF WASHINGTON THROUGH ITS CENTER FOR …, priority 2013, published 2015).

One data set concerns Scn1a+/− mice. In words: Three-chamber social preference test. It counts as in vivo. The source says: The mouse was allowed to freely explore each chamber. […] The recorded video file was further analyzed by off-line video tracking software (ETHOVISION™ XT 7.0). […] All data shown are means±s.e.m. and analyzed using two-way ANOVA with Bonferroni's post hoc analysis and one-way ANOVA with Tukey's post hoc analysis.
Oral administration is specifically contemplated for the methods described herein, and is well known for both benzodiazepines and non-BDZ GABA-A enhancers as described herein.
(§1) The test was performed as described previously (Han et al., 2012) with minor modifications. The threechamber apparatus is a non-transparent Plexiglas box (30×60 cm) with two transparent partitions that make left, center, and right chambers (30×20 cm). In the first 10-min session, a test mouse was placed in the center of the empty three-chamber unit to habituate the test mouse. The mouse was allowed to freely explore each chamber. In the second 10-min session, an age- and gender-matched same strain mouse that had never been exposed to the test mouse, was placed in one of the two wire cages. The empty wire cage as an inanimate object cue was placed on the other side. Then, the test mouse was placed again in the center, and allowed to freely explore the chamber for 10 min. Time spent in each chamber, and time spent within a 5 cm radius proximal to each wire cage, as a close interaction were measured by the videotracking software (EthoVision XT 8.5, Noldus Technology). All data shown are means±s.e.m. and analyzed using two-way ANOVA with Bonferroni's post hoc analysis and one-way ANOVA with Tukey's post hoc analysis.
(§2) L-838,417, and DMCM (Sigma), dissolved in 100% DMSO (sterile, Sigma) was diluted in PBS (the final concentration of DMSO was ranged from 0.005% to 0.1%). Drugs were administered by an intraperitoneal injection in a volume of […] 30 min before the behavioral tests.

Data set [1] deals with BTBR mice. Nature of the data set: Three-chamber social interaction test. Conditions: for social interaction deficit: 0.05 mg/kg (low dose) 30 min before test; for effect on social interaction at doses above the maximally effective dose: higher doses; for dose of maximal effect on social interaction: i.p., 30 min before test; for social interaction (time with stranger mouse, close interaction), dose series: single i.p. injection 30 min before test, low/increasing doses. Here is the method: In the three-chamber test, a test mouse is placed in the center chamber, and the preference of the test mouse for interaction with an inanimate object (a small empty cage) in the left chamber vs. a stranger mouse in an identical cage in the right chamber using a digital camera and quantitative video-tracking analysis.
as §1, §2

Data set [2] deals with C57BL/6J mice. Nature of the data set: Three-chamber social interaction test. It counts as in vivo. Conditions: for social interaction preference, Pre/CLZ/Post protocol: low dose (0.05 mg/kg), 0.05 mg/kg. An excerpt:
The mouse was allowed to freely explore each chamber.

The subject of data set [3] is BTBR mice. In words: Context-dependent fear conditioning test. It counts as in vivo. The source says: (§3) The contextual fear-conditioning chamber was a square arena (25×25 cm) with clear PLEXIGLAS™ walls and a metal grid floor connected to a circuit board that delivered shocks to the metal grid (COULBOURN INSTRUMENTS™). An analog camera was attached on top of the chamber. The camera and the circuit board were connected to a personal computer, and its software (FREEZE FRAME™ 2.0, ACTIMETRICS™) controlled the circuit and recorded the data. The chamber was cleaned with 70% ethanol and wiped with paper towels before each session. In the habituation session, a test mouse was placed in the chamber and allowed to explore for 2 min^66-69. Immediately after habituation, the test mouse received a single mild foot shock (2 s, 0.5 mA). After staying in the chamber one more min, the mouse was removed from the chamber. For the 30-min short-term memory test, the mouse was returned to the context 30 min after the end of the training session. For 24-hr long-term memory test, the mouse was returned to the context 24 hr after the training session. The movement of mice was also recorded by a USB webcam (LIFECAM™ HD-6000, MICROSOFT™) and PC-based video capture software (WINAVI™ Video Capture, ZJ MEDIA DIGITAL TECHNOLOGY™) for 2 min. The recorded video file was further analyzed by off-line video tracking software (ETHOVISION™ XT 7.0, NOLDUS TECHNOLOGY™). The freezing scores were calculated by dividing the test session into 1 min bouts and averaging together all 2 min for each animal. All data shown.
(§4) Freezing behavior is defined as the period during which the velocity of the test mouse is less than 1.75 cm/s, and non-freezing behavior is defined as the period during which the velocity of the mouse is greater than 2 cm/s.

Data set [4] concerns C57BL/6J mice. In words: Context-dependent fear conditioning test. It counts as in vivo.
Source text: as §3, §4

A further data set concerns GABA-A receptor. Conditions: cited from earlier work.

“Also recorded” adds a separate entry of the source.

Consider `O=C1CN=C(c2ccccc2Cl)c2cc([N+](=O)[O-])ccc2N1` [Clonazepam], for which, in the data set with Scn1a+/− mice (single i.p. 0.0625 mg/kg 30 min before test, listed as CLZ, 0.0625 mg/kg), the “social interaction, 3-chamber social preference test” value is listed as “completely rescued; also recorded: completely restored; also recorded: completely recovered”. Further, in the data set with BTBR mice [1], the social interaction deficit result is on record as “reversibly rescued; also recorded: improved”; the “effect on social interaction at doses above the maximally effective dose” value was “not observed; also recorded: lost at higher doses”; the “dose of maximal effect on social interaction” value was found to be 0.05 mg/kg; the “social interaction (time with stranger mouse, close interaction), dose series” value (shortened to “social interaction … dose series”) is “rescued; also recorded: increased”. Also, the social interaction deficit result with BTBR mice [1] (listed as CLZ) is recorded as “recover their preference”. Further, the “social interactions on Day 1 of repeated treatment” value with BTBR mice [1] (0.05 mg/kg i.p. daily) is recorded as “significantly increased”. Moreover, in the data set on BTBR mice [1] (0.05 mg/kg i.p. daily for 14 days), the “social interactions after 14 days of repeated treatment” value was “fully retained and even increased”. The “sedation / total distance moved during the three-chamber test” value with BTBR mice [1] (dose range up to 0.5 mg/kg (clonazepam: test doses)) is recorded as “did not cause sedation; also recorded: no sedation”. The “improvement of social deficit: time of interaction with stranger mouse vs. novel object” value with BTBR mice [1] (dose series (FIG. 39D)) was “strikingly dose-dependent”. Further, the “increase of time spent in the chamber containing the stranger mouse” value with BTBR mice [1] (doses from 0.00625 mg/kg to 0.05 mg/kg i.p.) is recorded as “approximately 2.5 fold”. The “tolerance to rescue of social interaction behavior” value with BTBR mice [1] (repeated 0.05 mg/kg, 14 days) was “does not elicit tolerance”. Further, in the data set with C57BL/6J mice [2] (any of the test doses (FIG. 39C)), the “time of interaction with stranger mouse vs. novel object” value is “unaffected”. The “social interactions / close interaction” value with C57BL/6J mice [2] (clonazepam single injection, 0-0.1 mg/kg) was “not altered; also recorded: no effect”. Further, in the data set with C57BL/6J mice [2], the “social interaction preference, Pre/CLZ/Post protocol” value is reported as “not changed; also recorded: None of these treatments had any significant effect”. Besides, the “social interaction preference, Pre/CLZ/Post protocol” value in the data set with C57BL/6J mice [2] (listed as CLZ) was “does not significantly alter”. Moreover, in the data set on BTBR mice [3] (0.0125 mg/kg), the “short-term and long-term memory” value is “no significant effects”. Besides, in the data set on BTBR mice [3] (0.05 mg/kg), the “long-term (24 h) memory” value is given as “improved” and the “short-term (30 min) memory” value was “improved”. Moreover, the “short-term and long-term memory” value in the data set with BTBR mice [3] (0.1 mg/kg) is “no significant effects”. In addition, in the data set with BTBR mice [3] (daily 0.05 mg/kg for 14 days), the “context-dependent fear memory on Day 1 and Day 14” value is “improved”; the “tolerance to effects on cognitive deficit” value was “does not cause tolerance”. In addition, the “spatial learning in context-dependent fear conditioning” value with BTBR mice [3] (low-dose CLZ (FIG. 10)) is given as “rescued”. Moreover, the “cognitive changes in fear conditioning” value in the data set on C57BL/6J mice [4] (clonazepam, any dose (0-0.1 mg/kg)) is given as “no cognitive changes”. The “Effect at GABA-A receptor” value with GABA-A receptor (Table 1, exemplary benzodiazepines) was “Agonist Long- acting”.
`Cn1ncnc1COc1nn2c(-c3cc(F)ccc3F)nnc2cc1C(C)(C)C` [L-838,417]: in the data set on Scn1a+/− mice (low doses, narrow dose range (FIGS. 41N, 41O)), the “social interactions in three-chamber test” value is reported as “improves social interactions”. Besides, in the data set with BTBR mice [1], the social interaction deficit entry is listed as “rescued”; the “effect on social interaction at doses above the maximally effective dose” value was “lost when the dose increased”; the “dose of maximal effect on social interaction” value amounted to 0.05 mg/kg; the “social interaction … dose series” value is on record as “increased”. The “social behavior (close interaction)” value with BTBR mice [1] (0.5 mg/kg) is on record as “disappeared”. Moreover, in the data set on BTBR mice [1] (biphasic dose-response), the “dose at low point of time in the chamber with the inanimate object” value was 0.05 mg/kg. In addition, in the data set on BTBR mice [1] (listed as L838,417), the “effect on social interaction at doses above the maximally effective dose” value is given as “reduced response”. In addition, in the data set with BTBR mice [1] (increasing doses), the “time of interaction with the inanimate object” value is reported as “decrease”. The “total movement during the three-chamber test at high dose” value in the data set on BTBR mice [1] (mouse, in vivo) was “tended to increase”. Besides, in the data set on BTBR mice [1] (listed as L818,417), the “social interaction … dose series” value was “progressively increase”. Moreover, in the data set on C57BL/6J mice [2] (L-838,417 / zolpidem (FIGS. 45I, 45J)), the “social behavior, dose series” value was “not changed; also recorded: did not change”. Also, in the data set on BTBR mice [3] (0.05 mg/kg), the “long-term (24 h) memory” value is given as “improved” and the “short-term (30 min) memory” value was “improved”. Moreover, the “memory of the spatial context” value in the data set with BTBR mice [3] (0.05 mg/kg 30 min before training session and 24-h memory session) was “substantially improved”. The “spatial learning behavior (FIG. 13B legend)” value in the data set on BTBR mice [3] (0.05 mg/kg, legend body prints DS mice, title BTBR mice) is “substantially rescued”. Further, the “memory of the spatial context” value with C57BL/6J mice [4] (0.05 mg/kg L838,417) is reported as “no effect”. In the data set on GABA-A receptor (Table 2, exemplary SS-PAMs), the “Effect at GABA receptor” value is “Partial agonist Selective for α2, α3 (and possibly α5) subunits”.
